Converted amounts (≈) assume the structure as drawn. Read-outs that look alike come from different tables or passages of the source.
What was measured:
[1] = test system: Bacillus subtilis ATCC 6633; assay: Broth microdilution MIC/MBC; format: cell-based; conditions: for MBC: ATCC6633
Procedure, shortened: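 Two-fold dilution series (final 1000–0.488 µg/ml) set up in Mueller-Hinton or RPMI 1640/MOPS broth. Suspensions in 0.85% NaCl at 0.5 McFarland were added to each well.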

769-P = assay: MTT antiproliferative assay; format: cell-based, human; conditions: for IC50: Homo sapiens, 769-P, MTT, 24 h incubation, renal adenocarcinoma; for Selectivity Index: ratio IC50 HEK-293 / IC50 769-P
Protocol: (§1) The in vitro studies were performed on the reference line HEK-293 (human embryonic kidney cells, ATCC® CRL-1573™) and […] human cancer cell lines: 769-P (adenocarcinoma, renal cells, ATCC® CRL-1933™) and HepG2 (carcinoma, hepatocellular, ATCC® HB-8065™), H1563 (adenocarcinoma, non-smallcell lung cancer, ATCC® CRL-5875™), LN-229 (glioblastoma, ATCC® CRL-2611™). Cells from the 769-P and H1563 cell lines were cultured in RPMI-1640 growth medium (PAN Biotech GmbH, Aidenbach, Bayern, Germany), cells from the HEK-293 and HepG2 cell lines were cultured in EMEM growth medium (PAN Biotech GmbH, Aidenbach, Bayern, Germany), and cells from the LN-229 cell line were cultured in DMEM growth medium (PAN Biotech GmbH, Aidenbach, Bayern, Germany) in sterile 75 cm^2 culture phalcones. Fetal bovine serum (PAN Biotech GmbH, Aidenbach, Bayern, Germany) at 10% of growth medium and antibiotics (Sigma-Aldrich, Poland) (2.5 µg/mL amphotericin B, 100 µg/mL penicillin, and 100 µg/mL streptomycin) were added to all media. Cells were cultured at 37 °C in an incubator with 5% CO2 flow until a cell layer was formed. Following this, the medium was removed, and the cells were washed with 0.25% trypsin solution with 2.21 mM EDTA (Corning Incorporated, Corning, NY, USA) in order to completely remove fetal bovine serum containing trypsin inhibitor. Finally, 6 mL of complete growth medium was added, and the cells were aspirated by gentle pipetting.
(§2) The determination of inhibitory concentration (IC50) in the HEK-293, 769-P, HepG2, H1563, and LN-229 cell cultures for selected hydrazide–hydrazones was performed using the MTT assay procedure. This test was performed according to the MTT Assay ECVAM n°17 protocol manual prepared by the European Centre for the Validation of Alternative Methods (ECVAM), an entity that aims to reduce in vivo testing in favor of in vitro and in silico methods. To 96-well sterile plates, 100 μL of cell suspensions, prepared in the appropriate medium at a concentration of 3 × 10^5 cells/mL, was added using a multichannel pipette. To achieve cell adhesion to the bottom of the plates, cells were incubated for 24 h at 37 °C with 5% CO2 flow and 90% humidity. To determine the growth-inhibitory concentration, the solutions of the tested substances (19–24) were prepared at concentrations ranging from 1 µM to 500 µM, added individually to the wells following the rule of 8 wells per concentration, and the plates were again incubated for 24 h at 37 °C and with 5% CO2 addition. We also prepared a background control (200 μL of the respective growth medium) and negative control (100 μL of cells in the appropriate growth medium + 100 μL of the growth medium), which provided information on the amount of formazan formed in the untreated cells. After a 24 h incubation period, the solutions were extracted from the cells; 190 μL of growth medium and 10 μL of 5 mg/mL MTT solution (Invitrogen, Waltham, MA, USA) were added each and incubated for 4 h. After this time, all medium was removed, 100 μL of DMSO (Corning Incorporated, Corning, NY, USA) was added to each well, and absorbance measurements were performed at 550 nm using a Power Weave xs spectrophotometric microplate reader (BioTek, Winooski, VT, USA). The decrease in absorbance is equivalent to the decrease in MTT formazan production, which is due to the decrease in mitochondrial dehydrogenase activity and indicates a cytotoxic effect from the tested substances. Cell viability is expressed as a percentage as the ratio of the absorbance of test substance-treated cells to the untreated cells. The experiments were repeated three times.
(§3) The significance level was taken as p < 0.05.

H1563 = assay: MTT antiproliferative assay; format: cell-based, human; conditions: for IC50: MTT, 24 h incubation, lung adenocarcinoma; for Selectivity Index: ratio IC50 HEK-293 / IC50 H1563
Protocol: as §1, §2, §3

LN-229 = assay: MTT antiproliferative assay; format: cell-based, human; conditions: for IC50: Homo sapiens, LN-229, MTT, 24 h incubation, glioblastoma; for Selectivity Index: ratio IC50 HEK-293 / IC50 LN-229
Protocol: as §1, §2, §3

SMILES | MBC/MIC [1] | MBC [1] [µg/mL] | MIC ([1]; ATCC6633, read-out: MIC) [µg/mL] | MIC [1] [µg/mL] | IC50 (769-P) [µM] | Selectivity Index (769-P) | IC50 (H1563; Homo sapiens, NCI-H1563, 24 h) [µM] | IC50 (H1563) [µM] | Selectivity Index (H1563) | IC50 (LN-229) [µM] | Selectivity Index (LN-229)
CCCc1ccc(/C=N/NC(=O)c2ccc(O)cc2O)cc1 [Compound 13, 2,4-dihydroxy-N-[(4-propylphenyl)methylidene]benzohydrazide] | > 1 | > 1000 | 1000 (≈ 3350 µM) |  |  |  |  |  |  |  | 
O=C(N/N=C/c1cc(I)cc(I)c1O)c1ccc(O)cc1O [Compound 18, 2,4-dihydroxy-N-[(2-hydroxy-3,5-diiodophenyl)methylidene]benzohydrazide] | 2 | 3.91 (≈ 7.46 µM) | 1.95 (≈ 3.72 µM) | 1.95 (≈ 3.72 µM) |  |  |  |  |  |  | 
O=C(N/N=C/c1ccccc1[N+](=O)[O-])c1ccc(O)cc1O [Compound 19, 2,4-dihydroxy-N-[(2-nitrophenyl)methylidene]benzohydrazide] | > 4 | > 1000 | 250 (≈ 830 µM) |  | 45.4 | 3.29 × 10^3 | 65.7 | 65.6 | 2.27 × 10^3 | 130 | 1.14 × 10^3
O=C(N/N=C/c1cccc([N+](=O)[O-])c1)c1ccc(O)cc1O [Compound 20, 2,4-dihydroxy-N-[(3-nitrophenyl)methylidene]benzohydrazide] | > 4 | > 1000 | 250 (≈ 830 µM) |  | > 500 |  | 70.9 |  | 1.89 × 10^2 | > 500 | 
O=C(N/N=C/c1ccc([N+](=O)[O-])cc1)c1ccc(O)cc1O [Compound 21, 2,4-dihydroxy-N-[(4-nitrophenyl)methylidene]benzohydrazide] | > 2 | > 1000 | 500 (≈ 1660 µM) |  | 12.4 |  | > 500 |  |  | 0.77 | 
O=C(N/N=C/c1ccccc1Cl)c1ccc(O)cc1O [Compound 22, N-[(2-chlorophenyl)methylidene]-2,4-dihydroxybenzohydrazide] |  |  | > 1000 |  | 262 | 1.20 | 217 |  | 1.45 | 111 | 2.85
O=C(N/N=C/c1ccccc1Br)c1ccc(O)cc1O [Compound 23, N-[(2-bromophenyl)methylidene]-2,4-dihydroxybenzohydrazide] |  |  | > 1000 |  | > 500 |  | 101 |  | 9.08 × 10^2 | 157 | 5.85 × 10^2
O=C(N/N=C/c1ccccc1F)c1ccc(O)cc1O [Compound 24, N-[(2-fluorophenyl)methylidene]-2,4-dihydroxybenzohydrazide] | > 2 | > 1000 | 500 (≈ 1820 µM) |  | > 500 |  | 200 |  | 1.94 | 199 | 1.94

Source: publication PMC10743905, “Design, Synthesis, and In Vitro and In Vivo Bioactivity Studies of Hydrazide–Hydrazones of 2,4-Dihydroxybenzoic Acid” (International Journal of Molecular Sciences, 2023)
